Reference: US9938335B2, “Glucagon and GLP-1 co-agonist compounds” (Eli Lilly and Company, priority 2015, dated 2018)
Converted amounts (≈) assume the structure as drawn. Read-outs that look alike come from different tables or passages of the source. Marks after values point to notes of the source that are not given here. Starred links: 1 amine or outer side, 2 acyl side, 3 side chain; linkers in the order of their positions; H or OH if unused. Non-standard residues stand in square brackets, D forms with d. Residues, ends and D or L forms follow the SMILES beside them. Groups on a side chain read outwards from the residue. *: point of attachment. C20 diacid = O=C(O)CCCCCCCCCCCCCCCCCCC(=O)*; γGlu = O=C(O)[C@H](CCC(=O)[*:2])N[*:1]; AEEA = NCCOCCOCC(=O)O; Aib = CC(C)(N)C(=O)O

How the values were obtained:
[1] = biological target: T1, Human Gcg-R (Homo sapiens, UniProt P47871); assay: Functional hGcg-R assay (cAMP HTRF, HEK-293 clonal cell line); assay type: cell-based
T1 construct: expressed in transfected cells; host or cells: HEK-293 clonal cell line over-expressing the receptor
T1 sequence (P47871 26-477): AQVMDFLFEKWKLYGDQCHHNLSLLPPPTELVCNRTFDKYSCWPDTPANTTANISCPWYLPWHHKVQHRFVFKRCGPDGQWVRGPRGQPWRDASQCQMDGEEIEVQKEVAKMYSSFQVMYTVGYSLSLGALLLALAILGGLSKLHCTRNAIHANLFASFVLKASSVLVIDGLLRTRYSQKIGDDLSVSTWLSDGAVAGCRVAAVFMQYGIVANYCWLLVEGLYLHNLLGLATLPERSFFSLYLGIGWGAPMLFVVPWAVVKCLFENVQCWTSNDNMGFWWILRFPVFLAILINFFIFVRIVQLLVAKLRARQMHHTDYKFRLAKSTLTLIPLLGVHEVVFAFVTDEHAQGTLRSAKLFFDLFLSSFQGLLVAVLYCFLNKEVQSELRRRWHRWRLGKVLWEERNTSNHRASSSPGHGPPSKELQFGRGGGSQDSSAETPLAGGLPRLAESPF
Method: (§1) After a 60 minute incubation at room temperature, the resulting increase in intracellular cAMP (adenosine 3′,5′-cyclic monophosphate) is quantitatively determined using the CisBio cAMP Dynamic 2 HTRF Assay Kit (62AM4PEJ). cAMP levels within the cell are detected by adding the cAMP-d2 conjugate in cell lysis buffer (20 μl) followed by the antibody anti-cAMP-Eu^3+-Cryptate, also in cell lysis buffer (20 μl).
(§2) A relative EC50 value and percent top (Emax) are derived by non-linear regression analysis using the percent maximal response vs. the concentration of peptide added, fitted to a four-parameter logistic equation (Genedata Screener®).
(§3) Means for EC50 are expressed as Geometric means±standard error of the mean (SEM) with the number of replicates (n) indicated in parenthesis. Means for Emax are expressed as the arithmetic mean±standard error. ND signifies that agonist activity was not detected.

[2] = system: DIO mice (C57BL/6); assay: Chronic treatment in DIO mice (body weight, fat, food intake); assay type: in vivo, mouse
Method: The effects on food intake and body weight/fat are evaluated in DIO mice. Five to six months old DIO mice (C57BL/6) from Taconic Biosciences are used in this study. Animals are individually housed in a temperature-controlled (24° C.) facility with a 12 hour light/dark cycle (lights on 6:00), and free access to food and water. The mice are acclimated to the facility for two weeks. The day before the study start, fat mass is measured by nuclear magnetic resonance (NMR) using an Echo Medical System (Houston, Tex.) instrument. The mice are randomized to treatment groups (N=7/group) based on body weight and fat mass so each group had similar starting mean body weight and fat mass. […] SC injections are made on Day 1, 4, 7, 10, and 13. Body weight and food intake are measured right before each injection throughout the study. Percent changes in body weight are calculated as follows: […]
At the completion of the study, total fat mass is measured again by NMR. Statistics are analyzed using ANOVA with Dunnett's comparison by JMP 6. Significance is denoted at p≤0.05 vs. vehicle.

[3] = Solubility (RP-HPLC and HPLC-SEC, 1 week at 4° C.); assay type: physicochemical
Method: Solubility of compounds of the present invention is measured in an Agilent 1100 HPLC, an Agilent 1200 HPLC and a Nanodrop 2000. The following HPLC columns are used:
(a) RP-HPLC: Waters Symmetry Shield C18, 3.6 um, 4.6×100 mm
(b) HPLC-SEC: Tosoh Biosciences, TSK2000SWXL […]
All peptide concentrations are made at 10 mg/mL in the following:
(a) 10 mM Tris pH 8.0+3 mg/mL m-cresol
(b) 10 mM Tris pH 8.0+3 mg/mL m-cresol+150 mM NaCl
(c) 10 mM Tris pH 8.0+3 mg/mL m-cresol+0.02% Tween-20
5 mL of 10 mg/mL peptide dissolved in 10 mM Tris at pH 8.0 is concentrated to approximately 20 mg/mL using Amicon-ultra 3 kDa MWCO devices. The solution is filtered using Millivex 0.22 μM filters (PVDF membrane) and the final concentration is measured by the NanoDrop spectrometer. This stock solution is used to formulate to the final conditions stated above using 3× m-cresol, 10× NaCl, and 100× Tween-20 stock solutions. A 10 mg/mL PBS solution is also prepared by dissolving directly at 5 mg/mL and concentrating using Amicon-ultra 3 kDa MWCO devices.
Each solution is placed in a refrigerator at 4° C. for 1 week, with analysis by RP-HPLC to assess concentration and HPLC-SEC to assess HMW species formation. Analyses completed at T-0 week and T-1 week.
The solubility of Compounds 1-4 was measured essentially as described in this assay.

[4] = system: DIO mice (C57BL/6); assay: Glycemic control in DIO mice; assay type: in vivo, mouse; conditions: for Blood glucose (mg/dL) post-injection, Mean: male DIO mice, 25 nmol/kg sc once
Method: Five to six months old male DIO mice (C57BL/6) from Taconic Biosciences are used in this study. Animals are individually housed in a temperature-controlled (24° C.) facility with a 12 hour light/dark cycle (lights on 6:00), and free access to food and water. After two weeks acclimation to the facility, the mice are randomized to treatment groups (n=7/group) based on their body weight and blood glucose. Mice are injected subcutaneously once with vehicle or compounds (25 nmol/kg). Blood glucose is monitored 2 and 8 hours post-injection and then once a day at 08:00 for 4 days. OGTTs are performed at 44 and 78 hours post the peptide injection. Statistics are analyzed using ANOVA with Dunnett's comparison by JMP 6. Significance is denoted at p≤0.05 vs vehicle.

[5] = Viscosity (Rheosense mVroc Viscometer); assay type: physicochemical; conditions: approximately 10 mg/mL peptide in 10 mM Tris + 3 mg/mL m-cresol at pH 8.0; 25° C.; shear rate 1934 s^−1
Method: Viscosity of compounds of the present invention is measured in a Rheosense mVroc Viscometer with the following settings:
(a) Syringe size: 500 μL syringe
(b) Flow Rate: 100 μL/min flow rate
(c) Average Temperature: 25° C.
(d) Shear Rate: 1934 s^−1
Dry powder (compound) is weighed out, dissolved in water as a cloudy precipitate, and titrated to approximately pH 8.0 with 1N NaOH. The solution is sonicated and swirled by hand until peptide is in solution. Samples are sterile filtered (0.22 μm PVDF filters). Samples are then analyzed by UV-Vis to assess stock solution concentrations. Solutions are diluted to final concentration using 3× m-cresol in 10 mM Tris pH 8.0 buffer to final concentrations of approximately 10 mg/mL peptide by weight in 10 mM Tris+3 mg/mL m-cresol at pH 8.0. Samples were filtered through 0.22 μm filters immediately prior to viscosity analysis. 25 μL of sample are removed to verify concentration by RP-HPLC before and after analysis.
Water and buffer control samples are measured before and after each sample is analyzed. The instrument is washed with buffer (3×) in between analysis of each sample. The samples are loaded into individual syringes and analyzed. The first measurement is not included in the final calculation to allow for equilibration with the system. Samples are then analyzed in triplicate (n=3).
The viscosity of Compounds 1-4 was measured essentially as described in this assay.

[6] = biological target: T2, hGLP-1-R (Homo sapiens, UniProt P43220); assay: Functional hGLP-1-R assay (cAMP HTRF, HEK-293 clonal cell line); assay type: cell-based; design: expressed in transfected cells; host or cells: HEK-293 clonal cell line over-expressing the receptor
T2 sequence (P43220 24-463): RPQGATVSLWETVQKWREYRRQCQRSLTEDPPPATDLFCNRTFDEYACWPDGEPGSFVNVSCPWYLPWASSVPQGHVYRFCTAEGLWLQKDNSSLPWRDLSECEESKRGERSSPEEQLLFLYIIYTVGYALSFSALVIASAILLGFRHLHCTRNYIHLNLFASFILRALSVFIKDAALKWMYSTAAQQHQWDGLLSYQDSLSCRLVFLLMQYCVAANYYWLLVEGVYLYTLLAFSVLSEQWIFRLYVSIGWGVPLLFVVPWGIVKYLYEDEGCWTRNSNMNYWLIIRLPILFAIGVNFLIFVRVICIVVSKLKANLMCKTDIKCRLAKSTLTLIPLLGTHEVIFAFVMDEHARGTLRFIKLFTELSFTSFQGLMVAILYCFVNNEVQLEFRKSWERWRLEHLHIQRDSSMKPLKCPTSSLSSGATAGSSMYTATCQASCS
Method: as §1, §2, §3

[7] = biological target: T2, hGLP-1-R; assay: hGLP-1R Binding Assay (SPA radioligand competition, 293HEK membranes); design: expressed in transfected cells; host or cells: 293HEK, stably transfected with plasmid phD, Hygromycin-selected; crude plasma membranes; conditions: read-out: Ki, nM ± SEM at the hGLP-1-R
[8] = biological target: hGcg-R (Homo sapiens, UniProt P47871); assay: hGcg-R Binding Assay (SPA radioligand competition, 293HEK membranes); conditions: read-out: Ki, nM ± SEM at the hGcg-R
Chain of hGcg-R (P47871 26-477): as the sequence (P47871 26-477) above

[9] = 15 nmol/kg sc every three days for 15 days
[10] = 30 nmol/kg sc every three days for 15 days

With CC(C)C[C@H](NC(=O)[C@H](CC(C)C)NC(=O)[C@H](Cc1c[nH]c2ccccc12)NC(=O)[C@H](CCC(=O)O)NC(=O)[C@@H](NC(=O)[C@H](Cc1ccccc1)NC(=O)[C@H](CCC(=O)O)NC(=O)[C@H](CCCCNC(=O)COCCOCCNC(=O)COCCOCCNC(=O)CC[C@H](NC(=O)CC[C@H](NC(=O)CCCCCCCCCCCCCCCCCCC(=O)O)C(=O)O)C(=O)O)NC(=O)[C@H](C)NC(=O)[C@H](CCCCN)NC(=O)[C@H](CCCCN)NC(=O)[C@H](CCC(=O)O)NC(=O)[C@H](CC(=O)O)NC(=O)[C@H](CC(C)C)NC(=O)[C@H](Cc1ccc(O)cc1)NC(=O)[C@H](CCCCN)NC(=O)[C@H](CO)NC(=O)[C@H](Cc1ccc(O)cc1)NC(=O)[C@H](CC(=O)O)NC(=O)[C@H](CO)NC(=O)[C@@H](NC(=O)[C@H](Cc1ccccc1)NC(=O)[C@@H](NC(=O)CNC(=O)[C@H](CCC(N)=O)NC(=O)C(C)(C)NC(=O)[C@@H](N)Cc1c[nH]cn1)[C@@H](C)O)[C@@H](C)O)C(C)C)C(=O)N[C@@H](CO)C(=O)NCC(=O)NCC(=O)N1CCC[C@H]1C(=O)N[C@@H](CO)C(=O)N[C@@H](CO)C(=O)NCC(N)=O [Compound 4] (H-H[Aib]QGTFTSDYSKYLDEKKAK([AEEA-AEEA-γGlu-γGlu-C20 diacid])EFVEWLLSGGPSSG-NH2; N-terminus assumed) the Emax ([1]; HEK293) was 116 ± 4%, the EC50 ([1]; cAMP, 60 minute incubation, 0.25% FBS, 0.05% BSA, geometric mean, read-out: Human Gcg-R EC50, nM ± SEM, (n)) was 68.8 ± 7.2 nM and the “Body Fat (% change vs. vehicle from Day 1)” value [2, 9] was −26* %. For the same compound, the “Body Weight (% change vs. vehicle from Day 1)” value [2, 9] was −15* %, the “Body Fat (% change vs. vehicle from Day 1)” value [2, 10] was −69* % and the “Body Weight (% change vs. vehicle from Day 1)” value [2, 10] was −39* %. For the same compound, the solubility at 1 week ([3]; 10 mM Tris pH 8.0 + 3 mg/mL m-cresol + 0.02% Tween-20, Tris pH 8 + 3 mg/mL m-cresol + 0.02% Tween-20) was 10000 µg/mL, the solubility at 1 week ([3]; 10 mM Tris pH 8.0 + 3 mg/mL m-cresol + 150 mM NaCl, Tris pH 8 + 3 mg/mL m-cresol + 150 mm NaCl) was 10000 µg/mL and the solubility at 1 week ([3]; 10 mM Tris pH 8.0 + 3 mg/mL m-cresol, Tris pH 8 + 3 mg/mL m-cresol) was 10000 µg/mL. For the same compound, the “HMW species formation by SEC-HPLC” value ([3]; 1 week at 4° C.) was “No observed HMW species formation by SEC-HPLC;”, the solubility at 1 week ([3]; PBS pH 7.4, pH 7.4, read-out: solubility in PBS, pH 7.4) was 10000 µg/mL (≈ 2150 µM) and the “visible precipitation or phase separation” value ([3]; after 1 week storage at 4° C.) was “No visible precipitation or phase separation observed after 1 week”. The “44 hours Glucose AUC (% of Vehicle)” value ([4]; OGTT 44 hours post-injection, 25 nmol/kg sc) was 41* % of Vehicle, the “78 hours Glucose AUC (% of Vehicle)” value ([4]; OGTT 78 hours post-injection, 25 nmol/kg sc) was 60* % of Vehicle and the “glucose excursions post an oral glucose challenge” value ([4]; OGTTs at 44 and 78 hours post injection, 25 nmol/kg) was “lower glucose excursions post an oral glucose challenge at both time points”. For the same compound, the “Blood glucose (mg/dL) post-injection, Mean” value (from here on “Blood glucose”) ([4]; 2 hours post-injection) was 110.2 mg/dL, the “Blood glucose” value ([4]; 8 hours post-injection) was 91.5 mg/dL and the “Blood glucose” value ([4]; 24 hours post-injection) was 87.4 mg/dL. For the same compound, the “Blood glucose” value ([4]; 48 hours post-injection) was 102.9 mg/dL, the “Blood glucose” value ([4]; 72 hours post-injection) was 115.7 mg/dL and the “Blood glucose” value ([4]; 96 hours post-injection) was 104.6 mg/dL. The “500 μL syringe Viscosity” value [5] was 1.05 cP or mPa-s, the Emax ([6]; HEK293) was 85.2 ± 6% and the EC50 ([6]; cAMP, 60 minute incubation, 0.25% FBS, 0.05% BSA, geometric mean, read-out: Human GLP-1-R EC50, nM ± SEM (n)) was 106 ± 18 nM. The Ki [7] was 20.2 ± 8.2 nM and the Ki [8] was 27.4 ± 3.3 nM.
